IC50 data for 40 compounds are collected here from US10253027B2, “Aryl lactam kinase inhibitors” (Bristol-Myers Squibb Company, priority 2013, dated 2019).

What is called IC50 is the concentration needed to halve the response being measured.

Each structure is given as a SMILES string.

T1 sequence (Q2M2I8 whole entry): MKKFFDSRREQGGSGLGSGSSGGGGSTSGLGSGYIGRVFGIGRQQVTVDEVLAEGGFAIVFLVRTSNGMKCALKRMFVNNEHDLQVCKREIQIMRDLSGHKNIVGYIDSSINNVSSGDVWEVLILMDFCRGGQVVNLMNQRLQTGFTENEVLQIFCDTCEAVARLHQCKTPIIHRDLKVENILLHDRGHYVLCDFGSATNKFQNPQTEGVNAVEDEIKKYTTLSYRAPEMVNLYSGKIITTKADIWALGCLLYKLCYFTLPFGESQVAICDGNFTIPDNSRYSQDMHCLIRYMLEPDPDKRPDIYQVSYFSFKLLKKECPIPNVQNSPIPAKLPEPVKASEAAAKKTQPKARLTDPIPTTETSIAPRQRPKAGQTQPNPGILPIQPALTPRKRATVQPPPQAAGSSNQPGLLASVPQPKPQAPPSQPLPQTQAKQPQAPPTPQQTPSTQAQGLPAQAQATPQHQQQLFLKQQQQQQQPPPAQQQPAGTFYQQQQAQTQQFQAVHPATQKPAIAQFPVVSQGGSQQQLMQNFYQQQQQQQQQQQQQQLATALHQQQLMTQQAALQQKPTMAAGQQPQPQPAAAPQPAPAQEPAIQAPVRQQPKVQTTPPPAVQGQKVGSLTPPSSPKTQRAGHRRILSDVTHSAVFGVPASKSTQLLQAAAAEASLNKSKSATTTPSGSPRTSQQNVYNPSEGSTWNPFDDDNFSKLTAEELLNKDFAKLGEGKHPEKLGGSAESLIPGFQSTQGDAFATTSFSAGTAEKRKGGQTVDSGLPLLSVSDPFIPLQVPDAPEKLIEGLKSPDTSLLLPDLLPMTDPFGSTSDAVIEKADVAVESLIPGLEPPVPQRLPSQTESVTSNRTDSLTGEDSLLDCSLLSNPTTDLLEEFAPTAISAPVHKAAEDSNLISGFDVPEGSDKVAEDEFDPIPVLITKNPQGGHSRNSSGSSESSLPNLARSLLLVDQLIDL

This test concerns the target T1, GST-Xa-hAAK1 (Homo sapiens, UniProt Q2M2I8).
T1 construct: made in house
Briefly: AAK1 Kinase Assay. As to conditions: IC50 (nM), ATP 22 μM; 3 hours at room temperature; Caliper LabChip 3000. It counts as biochemical. As to the method: The assays were performed in U-bottom 384-well plates. […] The reactions were initiated by the combination of bacterially expressed, GST-Xa-hAAK1 with substrates and test compounds. The reactions were incubated at room temperature for 3 hours and terminated by adding 60 μl of 35 mM EDTA buffer to each sample. The reactions were analyzed on the Caliper LabChip 3000 (Caliper, Hopkinton, Mass.) by electrophoretic separation of the fluorescent substrate and phosphorylated product. […] Compounds were dissolved at 10 mM in dimethylsulfoxide (DMSO) and evaluated at eleven concentrations. IC50 values were derived by non-linear regression analysis.
On to `COc1cc(NC(=O)C2NCCCC2C(F)(F)F)ccc1-c1cnco1` (single isomer, unassigned) [Example 91, N-(3-Methoxy-4-(oxazol-5-yl)phenyl)-3-(trifluoromethyl)piperidine-2-carboxamide], for which the IC50 amounted to 417 nM. As for `CC[C@@H](N)C(=O)Nc1ccc(-c2cnco2)c(OC)c1` [Example 50, (R)-2-Amino-N-(3-methoxy-4-(oxazol-5-yl)phenyl)butanamide], the figure is 340 nM; as for `COc1cc(NC(=O)[C@@H]2CCCN2C(=O)C(C)C)ccc1-c1cnco1` [Example 82, (S)-1-Isobutyryl-N-(3-methoxy-4-(oxazol-5-yl)phenyl)pyrrolidine-2-carboxamide], 1800 nM. As for `COc1cc(NC(=O)[C@H](N)CC(C)C)ccc1-c1ccnnc1` [Example 22, (R)-2-Amino-N-(3-methoxy-4-(pyridazin-4-yl)phenyl)-4-methylpentanamide], the figure is 140 nM; as for `COc1cc(NC(=O)[C@H](N)CC(C)C)ccc1-c1nncs1` [Example 23, (R)-2-Amino-N-(3-methoxy-4-(1,3,4-thiadiazol-2-yl)phenyl)-4-methylpentanamide], 5100 nM. As for `CCc1cc(NC(=O)[C@H](N)CC(C)C)ccc1-c1cnco1` [Example 14, (R)-2-Amino-N-(3-ethyl-4-(oxazol-5-yl)phenyl)-4-methylpentanamide], the figure is 97 nM; as for `COc1cc(NC(=O)C2NCCC2C(C)C)ccc1-c1cnco1` (single isomer, unassigned) [Example 39, 3-Isopropyl-N-(3-methoxy-4-(oxazol-5-yl)phenyl)pyrrolidine-2-carboxamide], 29 nM.

For the compound `COc1cc(NC(=O)[C@H](N)[C@H](C)O)ccc1-c1cnco1` [Example 77, (2R,3S)-2-Amino-3-hydroxy-N-(3-methoxy-4-(oxazol-5-yl)phenyl)butanamide], the IC50 stood at 810 nM.

As to `COc1cc(NC(=O)[C@H](N)CC(C)C)ccc1-c1cncs1` [Example 21, (R)-2-Amino-N-(3-methoxy-4-(thiazol-5-yl)phenyl)-4-methylpentanamide], the 50% inhibitory concentration (IC50) was found to be 275 nM. As for `COc1cc(NC(=O)[C@H](N)C(C)C)c(F)cc1-c1cnco1` [Example 96, (R)-2-Amino-N-(2-fluoro-5-methoxy-4-(oxazol-5-yl)phenyl)-3-methylbutanamide], the figure is 780 nM; as for `CC(C)C[C@@H](N)C(=O)Nc1ccc(-c2cnco2)c(Br)c1` [Example 12, (R)-2-Amino-N-(3-bromo-4-(oxazol-5-yl)phenyl)-4-methylpentanamide], 55 nM.

Take `CNc1cc(-c2ccc(NC(=O)C(N)CC(C)C)cc2OC)ccn1` (stereo not shown) [Example 48, 2-Amino-N-(3-methoxy-4-(2-(methylamino)pyridin-4-yl)phenyl)-4-methylpentanamide]: the IC50 is 450 nM. `COc1cc(NC(=O)C2NCCC2C(C)C)ccc1-c1cnco1` (single isomer, unassigned) [Example 37, 3-Isopropyl-N-(3-methoxy-4-(oxazol-5-yl)phenyl)pyrrolidine-2-carboxamide]: the IC50 was 8 nM. As for `COc1cc(NC(=O)C2NCCC2C(C)C)ccc1-c1cnco1` (single isomer, unassigned) [Example 38, 3-Isopropyl-N-(3-methoxy-4-(oxazol-5-yl)phenyl)pyrrolidine-2-carboxamide], the figure is 110 nM; as for `CCCS(=O)(=O)N[C@H](CC(C)C)C(=O)Nc1ccc(-c2cnco2)c(OC)c1` [Example 70, (R)—N-(3-Methoxy-4-(oxazol-5-yl)phenyl)-4-methyl-2-(propylsulfonamido)pentanamide], 310 nM; as for `CC(C)C[C@@H](N)C(=O)Nc1cc(F)c(-c2cnco2)cc1F` [Example 105, (R)-2-Amino-N-(2,5-difluoro-4-(oxazol-5-yl)phenyl)-4-methylpentanamide], 620 nM. For `COc1cc(NC(=O)C(CC(C)C)N[C@H]2CC[C@H](N)CC2)ccc1-c1cnco1` (stereo partly drawn) [Example 31, 2-(trans-4-Aminocyclohexylamino)-N-(3-methoxy-4-(oxazol-5-yl)phenyl)-4-methylpentanamide] the value was 7320 nM. As for `COc1cc(NC(=O)C(N)CC(C)C)ccc1-c1cnco1` (stereo not shown) [Example 7, 2-Amino-N-(3-methoxy-4-(oxazol-5-yl)phenyl)-4-methylpentanamide], the figure is 64 nM; as for `COc1cc(NC(=O)[C@H](N)CO)ccc1-c1cnco1` [Example 75, (R)-2-Amino-3-hydroxy-N-(3-methoxy-4-(oxazol-5-yl)phenyl)propanamide], 5100 nM. For the compound `COc1cc(NC(=O)C2CCCCN2C(=O)C(C)C)ccc1-c1cnco1` (stereo not shown) [Example 80, 1-Isobutyryl-N-(3-methoxy-4-(oxazol-5-yl)phenyl)piperidine-2-carboxamide], the IC50 is 630 nM. As for `COc1cc(NC(=O)C(CC(C)C)N2CCC(N)CC2)ccc1-c1cnco1` (stereo not shown) [Example 33, 2-(4-Aminopiperidin-1-yl)-N-(3-methoxy-4-(oxazol-5-yl)phenyl)-4-methylpentanamide], the figure is 2100 nM; as for `CC[C@@H](C)[C@@H](N)C(=O)Nc1ccc(-c2cnco2)c(OC)c1` [Example 55, (2R,3R)-2-Amino-N-(3-methoxy-4-(oxazol-5-yl)phenyl)-3-methylpentanamide], 130 nM. Turning to `COc1cc(NC(=O)[C@H](N)CC2CC2)ccc1-c1cnco1` [Example 9, (R)-2-Amino-3-cyclopropyl-N-(3-methoxy-4-(oxazol-5-yl)phenyl)propanamide], the concentration for half-maximal inhibition (IC50) amounted to 115 nM. As for `COc1cc(NC(=O)[C@H](N)CC2CCCCC2)ccc1-c1cnco1` [Example 56, (R)-2-Amino-3-cyclohexyl-N-(3-methoxy-4-(oxazol-5-yl)phenyl)propanamide], the figure is 950 nM; as for `CCCC[C@H](N)C(=O)Nc1ccc(-c2cnco2)c(OC)c1` [Example 53, (S)-2-Amino-N-(3-methoxy-4-(oxazol-5-yl)phenyl)hexanamide], 270 nM; as for `CCS(=O)(=O)N[C@H](CC(C)C)C(=O)Nc1ccc(-c2cnco2)c(OC)c1` [Example 69, (R)-2-(Ethylsulfonamido)-N-(3-methoxy-4-(oxazol-5-yl)phenyl)-4-methylpentanamide], 280 nM. As for `COc1cc(NC(=O)C2NCCCC2C(F)(F)F)ccc1-c1cnco1` (single isomer, unassigned) [Example 92, N-(3-Methoxy-4-(oxazol-5-yl)phenyl)-3-(trifluoromethyl)piperidine-2-carboxamide], the figure is 74 nM. As for `COc1cc(NC(=O)C[C@@H](N)C(C)C)ccc1-c1cnco1` [Example 79, (R)-3-Amino-N-(3-methoxy-4-(oxazol-5-yl)phenyl)-4-methylpentanamide], the figure is 130 nM. As to `COc1cc(NC(=O)[C@H](N)CC2CCC2)c(F)cc1-c1cnco1` (stereo in doubt) [Example 94, 2-Amino-3-cyclobutyl-N-(2-fluoro-5-methoxy-4-(oxazol-5-yl)phenyl)propanamide], the IC50 was 750 nM. In the case of `CC(C)C[C@@H](N)C(=O)Nc1ccc(-c2cnco2)c(C(F)(F)F)c1` [Example 11, (R)-2-Amino-4-methyl-N-(4-(oxazol-5-yl)-3-(trifluoromethyl)phenyl)pentanamide], the concentration for half-maximal inhibition (IC50) was 1520 nM. As for `COc1cc(NC(=O)[C@H]2CCCN2)ccc1-c1cnco1` [Example 2, (R)—N-(3-Methoxy-4-(oxazol-5-yl)phenyl)pyrrolidine-2-carboxamide], the IC50 amounted to 346 nM. With `COc1cc(NC(=O)[C@@H](CC(C)C)NCc2cccn2C)ccc1-c1cnco1` [Example 61, (R)—N-(3-Methoxy-4-(oxazol-5-yl)phenyl)-4-methyl-2-(((1-methyl-1H-pyrrol-2-yl)methyl)amino)pentanamide], the concentration for half-maximal inhibition (IC50) is 72 nM. As for `COc1cc(NC(=O)[C@H](N)C2CCCC2)ccc1-c1cnco1` [Example 3, (R)-2-Amino-2-cyclopentyl-N-(3-methoxy-4-(oxazol-5-yl)phenyl)acetamide], the figure is 53 nM. In the case of `COc1cc(NC(=O)[C@H](N)CC(C)C)c(Cl)cc1-c1cnco1` [Example 27, (R)-2-Amino-N-(2-chloro-5-methoxy-4-(oxazol-5-yl)phenyl)-4-methylpentanamide], the concentration for half-maximal inhibition (IC50) amounted to 54 nM.

Consider `COc1cc(NC(=O)[C@H](O)CC(C)C)ccc1-c1cnco1` [Example 34, (R)-2-Hydroxy-N-(3-methoxy-4-(oxazol-5-yl)phenyl)-4-methylpentanamide], for which the IC50 stood at 202 nM.

`COc1cc(NC(=O)[C@H]2C[C@H](OC)CN2)ccc1-c1cnco1` [Example 78, (2R,4S)-4-Methoxy-N-(3-methoxy-4-(oxazol-5-yl)phenyl)pyrrolidine-2-carboxamide]: the half-maximal inhibitory concentration (IC50) was found to be 2900 nM. Take `COc1cc(NC(=O)[C@H]2C[C@H](F)CN2)ccc1-c1cnco1` [Example 89, (2R,4S)-4-Fluoro-N-(3-methoxy-4-(oxazol-5-yl)phenyl)pyrrolidine-2-carboxamide]: the IC50 was found to be 2000 nM. As for `COc1cc(NC(=O)[C@H]2C[C@@H](F)CN2)ccc1-c1cnco1` [Example 90, (2R,4R)-4-Fluoro-N-(3-methoxy-4-(oxazol-5-yl)phenyl)pyrrolidine-2-carboxamide], the figure is 1100 nM; as for `COc1cc(NC(=O)[C@H](N)CC(C)C)ccc1-c1cnc2cccnn12` [Example 46, (R)-2-amino-N-(4-(imidazo[1,2-b]pyridazin-3-yl)-3-methoxyphenyl)-4-methylpentanamide], 2200 nM. For `CC(C)C[C@@H](N)C(=O)Nc1ccc(-c2cnco2)c(C#N)c1` [Example 108, (R)-2-Amino-N-(3-cyano-4-(oxazol-5-yl)phenyl)-4-methylpentanamide] the value was 47 nM.
